What was measured:
[1] = test system: WiDr-R cells (colon cancer cells; chemically-induced SF3B1 R1074H mutant); experiment: Cell viability assay (CellTiter-Glo, 72 hr), resistant WiDr-R cells (counter-screen); format: cell-based; conditions: WiDr-R cells (SF3B1 R1074H mutation, resistant); read-out: WiDr-R GI50
Summary of the method: (§1)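 Cells at 2000/well were exposed to 9 compound concentrations (0.1% DMSO) in duplicate or triplicate for 72 hr at 37 °C. ATP was read by CellTiter-Glo against a time-zero plate and DMSO control growth. Percent growth/viability was plotted against concentration to give Emax; negative values indicate lethality.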

[2] = test system: WiDr cells (colon cancer cells; wildtype SF3B1); experiment: Cell viability assay (CellTiter-Glo, 72 hr), WiDr cells; format: cell-based; conditions: Homo sapiens; WiDr cells (wildtype SF3B1); read-out: WiDr GI50
Summary of the method: as §1

[3] = test system: Panc 05.04 cells (pancreatic cancer cells; Q699H and K700E mutations in SF3B1); experiment: Cell viability assay (CellTiter-Glo, 72 hr), Panc 05.04 cells; format: cell-based; conditions: Panc 05.04 cells (mutant SF3B1); for Emax: maximum achievable response in tested dose range, negative value = cellular lethality, read-out: Panc 05.04 (mt SF3B1 cells) Emax (%); for GI50: read-out: Panc 05.04 (mt SF3B1 cells), GI50
Summary of the method: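 Viability was read as ATP content (CellTiter-Glo) after 72 hr compound exposure of Panc 05.04 cells at 37 °C, nine concentrations, 0.1% DMSO. Percentage growth was referenced to time-zero and vehicle wells and plotted against concentration to obtain Emax; negative Emax denotes cell killing.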

[4] = target: T1, SF3b complexes (Homo sapiens, UniProt O75533+Q7RTV0); experiment: Scintillation proximity assay (SPA) with [3H]-labelled pladienolide probe; format: binding; conditions: wt SF3B1, read-out: SPA (wt SF3B1 cells) IC50
T1 construct: endogenous in cells
Protocol: Batch immobilization of anti-SF3B1 antibody (MBL) to anti-mouse PVT SPA scintillation beads (PerkinElmer) was prepared as follows: for every 2.5 mg of nuclear extracts, 5 μg anti-SF3B1 antibody and 1.5 mg of beads were mixed in 150 μl PBS. The antibody-bead mixture was incubated for 30 min at RT and centrifuged at 18,000 g for 5 min. 150 μl PBS was used to resuspend every 1.5 mg antibody-bead mixture. The beads were suspended and added to the prepared nuclear extracts. The slurry was incubated for 2 h at 4° C. with gentle mixing. The beads were then collected by centrifuging at 18,000 g for 5 min, and washed twice with PBS+0.1% Triton X-100. After a final centrifugation step, every 1.5 mg of beads was suspended with 150 μl of PBS. The SF3b complexes were tested for [^3H]-labelled pladienolide probe binding ([^3H]-PB), synthesized as previously described (Kotake et al., 2007). 100 μL binding reactions were prepared with 50 μl bead slurry and by adding varying concentrations of PB or PB—OH, and after 30 min pre-incubation, 2.5 nM [^3H]—PB was added. The mixture was incubated for 30 min, and luminescence signals were read using a MicroBeta2 Plate Counter (PerkinElmer). Prism 6 (Graphpad) was used for non-linear regression curve fitting of the data.

| Structure (SMILES) | GI50 [1] | GI50 [2] | Emax [3] | GI50 [3] | IC50 [4] |
| --- | --- | --- | --- | --- | --- |
| C/C(=C\C=C\C(C)c1ncccn1)[C@H]1OC(=O)C[C@H](O)CC[C@@](C)(O)[C@@H](OC(=O)N2CCN(C3CCCCCC3)CC2)/C=C/[C@@H]1C (stereo partly shown) | > 1000 nM | 45.9 nM | -91.6% | 31 nM | 11.9 nM |
| C/C(=C\C=C\[C@@H](C)c1ccccn1)[C@H]1OC(=O)C[C@H](O)CC[C@H](C)[C@@H](OC(=O)N2CCN(C)CC2)/C=C/[C@@H]1C | > 10000 nM | 15.3 nM | -94.3% | 8.07 nM | 3.78 nM |
| C/C(=C\C=C\[C@@H](C)COC(=O)N1CC[C@@H](O)C1)[C@H]1OC(=O)C[C@H](O)CC[C@@](C)(O)[C@@H](OC(=O)N2CCN(C3CCCCCC3)CC2)/C=C/[C@@H]1C | > 1000 nM | 5.56 nM | -84.5% | 5.51 nM | 7.66 nM |
| CCCN(C)C(=O)OC[C@H](C)/C=C/C=C(\C)[C@H]1OC(=O)C[C@H](O)CC[C@@](C)(O)[C@@H](OC(C)=O)/C=C/[C@@H]1C | > 1000 nM | 39.1 nM | -91.8% | 42.5 nM | 6.22 nM |
| C/C(=C\C=C\[C@@H](C)COC(=O)N1CCCC12COC2)[C@H]1OC(=O)C[C@H](O)CC[C@@](C)(O)[C@@H](OC(=O)N2CCN(C)CC2)/C=C/[C@@H]1C | > 1000 nM | 47.2 nM | 90.7% | 31.5 nM | 9.56 nM |
| C/C(=C\C=C\[C@@H](C)c1ccccn1)[C@H]1OC(=O)CCCCC[C@@H](OC(=O)N2CCN(C)CC2)/C=C/[C@@H]1C | > 10000 nM | 67.1 nM | -93.5% | 75.1 nM | 7.9 nM |
| C/C(=C\C=C\[C@@H](C)COC(=O)N1CCC[C@H]1CO)[C@H]1OC(=O)CCCCC[C@@H](OC(=O)N2CCN(C)CC2)/C=C/[C@@H]1C | 423 nM | 2.52 nM | -62.8% | 2.9 nM | 3.61 nM |
| C/C(=C\C=C\C(C)c1ncccc1C)[C@H]1OC(=O)C[C@H](O)CC[C@@](C)(O)[C@@H](OC(=O)N2CCN(C3CCCCCC3)CC2)/C=C/[C@@H]1C (stereo partly shown) | > 1000 nM | 15.8 nM | -92.3% | 21.2 nM | 6.26 nM |
| C/C(=C\C=C\[C@@H](C)CNC(=O)C1CCCC1)[C@H]1OC(=O)C[C@H](O)CC[C@@](C)(O)[C@@H](OC(=O)N2CCN(C3CCCCCC3)CC2)/C=C/[C@@H]1C | > 1000 nM | 73 nM | -88.4% | 53.3 nM | 11.2 nM |
| CC(=O)O[C@H]1/C=C/[C@H](C)[C@@H](/C(C)=C/C=C/[C@@H](C)COC(=O)N2CCC[C@@H]2CO)OC(=O)C[C@H](O)CC[C@@]1(C)O | > 10000 nM | 24.7 nM | -83.4% | 35.1 nM | 80.4 nM |
| C/C(=C\C=C\C(C)(C)COC(=O)N1CCCC1)[C@H]1OC(=O)C[C@H](O)CC[C@@](C)(O)[C@@H](OC(=O)N2CCN(C3CCCCCC3)CC2)/C=C/[C@@H]1C | 221 nM | 3.46 nM | -79.7% | 4.43 nM | 5.14 nM |
| CC(=O)O[C@H]1/C=C/[C@H](C)[C@@H](/C(C)=C/C=C/Cc2ccccn2)OC(=O)C[C@H](O)CC[C@@]1(C)O | > 10000 nM | 559 nM | 87.2% | > 10000 nM | > 1200 nM |
| COC[C@H]1CCCN1C(=O)OC[C@H](C)/C=C/C=C(\C)[C@H]1OC(=O)C[C@H](O)CC[C@@](C)(O)[C@@H](OC(C)=O)/C=C/[C@@H]1C | > 1000 nM | 71.6 nM | -90.9% | 76.5 nM | 60.7 nM |
| CC[C@H](O)[C@@H](C)NC(=O)OC[C@H](C)/C=C/C=C(\C)[C@H]1OC(=O)C[C@H](O)CC[C@@](C)(O)[C@@H](OC(C)=O)/C=C/[C@@H]1C | > 10000 nM | 555 nM | -92.8% | 327 nM | 53.4 nM |
| C/C(=C\C=C\C(C)c1cccnn1)[C@H]1OC(=O)C[C@H](O)CC[C@@](C)(O)[C@@H](OC(=O)N2CCN(C3CCCCCC3)CC2)/C=C/[C@@H]1C (stereo partly shown) | > 1000 nM | 15.1 nM | -94.7% | 22 nM | 3.38 nM |
| C/C(=C\C=C\[C@@H](C)COC(=O)N1CC[C@@H](O)C1)[C@H]1OC(=O)CCCCC[C@@H](OC(=O)N2CCN(C)CC2)/C=C/[C@@H]1C | 2840 nM | 8.59 nM | -87% | 6.48 nM | 5.42 nM |
| C/C(=C\C=C\[C@@H](C)c1ccccn1)[C@H]1OC(=O)C[C@H](O)CC[C@@](C)(O)[C@@H](OC(=O)N2CCNCC2)/C=C/[C@@H]1C | > 1000 nM | 16 nM | -76.5% | 39.5 nM | 26.9 nM |
| CC(=O)O[C@H]1/C=C/[C@H](C)[C@@H](/C(C)=C/C=C/[C@@H](C)COC(=O)N2CCCC2)OC(=O)C[C@H](O)CC[C@@]1(C)O | > 1000 nM | 4.83 nM | -94.1% | 20.1 nM | 2.75 nM |
| C/C(=C\C=C\[C@@H](C)COC(=O)N1CCCC1)[C@H]1OC(=O)CCCCC[C@@H](OC(=O)N2CCN(C)CC2)/C=C/[C@@H]1C | 2440 nM | 7.84 nM | -90.5% | 6.74 nM | 3.71 nM |
| C/C(=C\C=C\[C@@H](C)COC(=O)N1CCC[C@H]1CF)[C@H]1OC(=O)C[C@H](O)CC[C@@](C)(O)[C@@H](OC(=O)N2CCN(C3CCCCCC3)CC2)/C=C/[C@@H]1C | > 1000 nM | 1.24 nM | -72.7% | 1.75 nM | 4.23 nM |
| C/C(=C\C=C\[C@@H](C)COC(=O)N1CCCC1)[C@H]1OC(=O)CCCCC[C@@H](OC(=O)N(C)C)/C=C/[C@@H]1C | 6380 nM | 135 nM | -94.8% | 156 nM | 71.1 nM |
| C/C(=C\C=C/[C@@H](C)COC(=O)N1CC[C@@H](O)C1)[C@H]1OC(=O)C[C@H](O)CC[C@H](C)[C@@H](OC(=O)N2CCN(C)CC2)/C=C/[C@@H]1C | > 1000 nM | 4.51 nM | -90.4% | 6.67 nM | 2.15 nM |
| C/C(=C\C=C\[C@@H](C)c1ccccn1)[C@H]1OC(=O)C[C@H](O)CC[C@@](C)(O)[C@@H](OC(=O)N2C[C@H]3C[C@H]2CN3C)/C=C/[C@@H]1C | > 1000 nM | 41.5 nM | -29.4% | 56.4 nM | 12.3 nM |
| C/C(=C\C=C\[C@@H](C)COC(=O)N1CCCC1)[C@H]1OC(=O)C[C@H](O)CC[C@@](C)(O)[C@@H](OC(=O)N2CCN(C)CC2)/C=C/[C@@H]1C | > 1000 nM | 3.83 nM | -90.3% | 3.05 nM | 2.1 nM |
| CC(=O)O[C@H]1/C=C/[C@H](C)[C@@H](/C(C)=C/C=C/[C@@H](C)CO)OC(=O)C[C@H](O)CC[C@@]1(C)O | > 10000 nM | 4040 nM | 47.5% | 6920 nM | 326 nM |
| C/C(=C\C=C\[C@@H](C)c1ccccn1)[C@H]1OC(=O)C[C@H](O)CC[C@@](C)(O)[C@@H](OC(=O)N2CCN(C3CCCC3)CC2)/C=C/[C@@H]1C | > 1000 nM | 19.6 nM | -89.5% | 27.9 nM | 8.76 nM |

— patent publication US11926619B2, “Certain pladienolide compounds and methods of use” (EISAI R&D MANAGEMENT CO., LTD., priority 2018, dated 2024)
